Assay results reported in BigSolDB 2.1.

CO/N=C(\C(=O)N[C@@H]1C(=O)N2C(C(=O)O)=C(CSc3nnnn3C)CS[C@H]12)c1csc(N)n1.CO/N=C(\C(=O)N[C@@H]1C(=O)N2C(C(=O)O)=C(CSc3nnnn3C)CS[C@H]12)c1csc(N)n1.Cl
solubility (mole fraction)
Conditions | 283.15 K | 288.15 K | 293.15 K | 298.15 K | 303.15 K | 308.15 K | 313.15 K
in ethanol | 2.61e-05 | 2.83e-05 | 3.03e-05 | 3.17e-05 | 3.8e-05 | 4.01e-05 | 4.68e-05
in methanol | 0.000186 | 0.000196 | 0.000213 | 0.000235 | 0.000253 | 0.000275 | 0.000303
in water | 3.26e-05 | 3.59e-05 | 4.23e-05 | 4.76e-05 | 5.29e-05 | 5.88e-05 | 6.65e-05
